The values below are quoted from earlier work in patent US20070184040A1, “Compositions for delivery of coenzyme Q10” (priority 2006, published 2007).

For the molecule `COC1=C(OC)C(=O)C(C/C=C(\C)CC/C=C(\C)CC/C=C(\C)CC/C=C(\C)CC/C=C(\C)CC/C=C(\C)CC/C=C(\C)CC/C=C(\C)CC/C=C(\C)CCC=C(C)C)=C(C)C1=O` [CoQ10, Coenzyme Q10], the “solubility in most hydrophilic solvents, such as water” value is recorded as “very poorly soluble”.
